Assay results from PubChem BioAssay (NCI).
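1) Cells in 96-well plates. 2) Compound, 48 h, 5 concentrations. 3) Linear interpolation between surrounding doses. 4) Unreached endpoint = highest concentration. TGI is the concentration that stops growth completely.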

How the values were obtained:
Assay in all cases: NCI-60 cell line screen, 48 h
[1] = tested on: 786-0 renal
[2] = tested on: A498 renal
[3] = tested on: A549 NSCLC
[4] = tested on: ACHN renal
[5] = tested on: BT-549 breast
[6] = tested on: CAKI-1 renal
[7] = tested on: CCRF-CEM leukemia
[8] = tested on: COLO 205 colon
[9] = tested on: DU-145 prostate
[10] = tested on: EKVX NSCLC
[11] = tested on: HCC-2998 colon
[12] = tested on: HCT-116 colon
[13] = tested on: HCT-15 colon
[14] = tested on: HL-60(TB) leukemia
[15] = tested on: HOP-62 NSCLC
[16] = tested on: HOP-92 NSCLC
[17] = tested on: HS 578T breast
[18] = tested on: HT29 colon
[19] = tested on: IGROV1 ovarian
[20] = tested on: K-562 leukemia
[21] = tested on: KM12 colon
[22] = tested on: LOX IMVI melanoma
[23] = tested on: M14 melanoma
[24] = tested on: MALME-3M melanoma
[25] = tested on: MCF7 breast
[26] = tested on: MDA-MB-231 breast
[27] = tested on: MDA-MB-435
[28] = tested on: MDA-N
[29] = tested on: MOLT-4 leukemia
[30] = tested on: NCI-H226 lung
[31] = tested on: NCI-H23 lung
[32] = tested on: NCI-H460 lung
[33] = tested on: NCI-H522 lung
[34] = tested on: NCI/ADR-RES ovarian
[35] = tested on: OVCAR-3 ovarian
[36] = tested on: OVCAR-4 ovarian
[37] = tested on: OVCAR-5 ovarian
[38] = tested on: OVCAR-8 ovarian
[39] = tested on: PC-3 prostate
[40] = tested on: RPMI-8226 leukemia
[41] = tested on: RXF 393 renal
[42] = tested on: SF-268 CNS
[43] = tested on: SF-295 CNS
[44] = tested on: SF-539 CNS
[45] = tested on: SK-MEL-2 melanoma
[46] = tested on: SK-MEL-28 melanoma
[47] = tested on: SK-MEL-5 melanoma
[48] = tested on: SK-OV-3 ovarian
[49] = tested on: SN12C renal
[50] = tested on: SNB-19 CNS
[51] = tested on: SNB-75 CNS
[52] = tested on: SR leukemia
[53] = tested on: SW-620 colon
[54] = tested on: T-47D breast
[55] = tested on: TK-10 renal
[56] = tested on: U251 CNS
[57] = tested on: UACC-257 melanoma
[58] = tested on: UACC-62 melanoma
[59] = tested on: UO-31 renal

O=C1/C(=C/c2ccc(O)cc2)Oc2ccccc21
TGI [1]: > 100 µM
TGI [2]: > 100 µM
TGI [3]: > 100 µM
TGI [4]: > 100 µM
TGI [5]: > 100 µM
TGI [6]: > 100 µM
TGI [7]: > 100 µM
TGI [8]: > 100 µM
TGI [9]: > 100 µM
TGI [10]: > 100 µM
TGI [11]: > 100 µM
TGI [12]: > 100 µM
TGI [13]: > 100 µM
TGI [14]: 92.9 µM
TGI [15]: > 100 µM
TGI [16]: > 100 µM
TGI [17]: > 100 µM
TGI [18]: > 100 µM
TGI [19]: > 100 µM
TGI [20]: > 100 µM
TGI [21]: > 100 µM
TGI [22]: > 100 µM
TGI [23]: > 100 µM
TGI [24]: > 100 µM
TGI [25]: > 100 µM
TGI [26]: > 100 µM
TGI [27]: > 100 µM
TGI [28]: > 100 µM
TGI [29]: > 100 µM
TGI [30]: > 100 µM
TGI [31]: > 100 µM
TGI [32]: > 100 µM
TGI [33]: 62 µM
TGI [34]: > 100 µM
TGI [35]: > 100 µM
TGI [36]: > 100 µM
TGI [37]: > 100 µM
TGI [38]: > 100 µM
TGI [39]: > 100 µM
TGI [40]: > 100 µM
TGI [41]: > 100 µM
TGI [42]: > 100 µM
TGI [43]: > 100 µM
TGI [44]: > 100 µM
TGI [45]: > 100 µM
TGI [46]: > 100 µM
TGI [47]: > 100 µM
TGI [48]: > 100 µM
TGI [49]: > 100 µM
TGI [50]: > 100 µM
TGI [51]: > 100 µM
TGI [52]: > 100 µM
TGI [53]: > 100 µM
TGI [54]: > 100 µM
TGI [55]: > 100 µM
TGI [56]: > 100 µM
TGI [57]: > 100 µM
TGI [58]: > 100 µM

Cc1nccn1S(=O)(=O)c1ccc(Cl)cc1
TGI [1]: > 100 µM
TGI [2]: > 100 µM
TGI [3]: > 100 µM
TGI [4]: > 100 µM
TGI [5]: > 100 µM
TGI [6]: > 100 µM
TGI [7]: > 100 µM
TGI [8]: 40.2 µM
TGI [9]: > 100 µM
TGI [10]: > 100 µM
TGI [11]: 88 µM
TGI [12]: > 100 µM
TGI [13]: > 100 µM
TGI [14]: 60.5 µM
TGI [15]: > 100 µM
TGI [16]: 64.3 µM
TGI [17]: > 100 µM
TGI [18]: > 100 µM
TGI [19]: > 100 µM
TGI [20]: > 100 µM
TGI [21]: > 100 µM
TGI [22]: > 100 µM
TGI [23]: > 100 µM
TGI [24]: > 100 µM
TGI [25]: > 100 µM
TGI [26]: 78.9 µM
TGI [27]: 48.8 µM
TGI [28]: 51 µM
TGI [29]: > 100 µM
TGI [30]: > 100 µM
TGI [31]: > 100 µM
TGI [32]: > 100 µM
TGI [33]: > 100 µM
TGI [34]: > 100 µM
TGI [35]: > 100 µM
TGI [36]: > 100 µM
TGI [37]: > 100 µM
TGI [38]: > 100 µM
TGI [39]: > 100 µM
TGI [40]: > 100 µM
TGI [41]: > 100 µM
TGI [42]: > 100 µM
TGI [43]: > 100 µM
TGI [44]: > 100 µM
TGI [45]: > 100 µM
TGI [46]: > 100 µM
TGI [47]: > 100 µM
TGI [48]: > 100 µM
TGI [49]: > 100 µM
TGI [50]: > 100 µM
TGI [51]: > 100 µM
TGI [52]: > 100 µM
TGI [53]: > 100 µM
TGI [54]: > 100 µM
TGI [55]: > 100 µM
TGI [56]: > 100 µM
TGI [57]: > 100 µM
TGI [58]: > 100 µM
TGI [59]: > 100 µM
